Assay results as given in patent US6596863B2, “Medical composition containing nitroetheneamine Derivative or salt there of as active constituent” (Ishihara Sangyo Kaisha, Ltd., priority 1998, dated 2003).
Like-named read-outs stand apart in the source and are kept apart here.

Tests used:
[1] = molecular target: T1, human MMP-9 (gelatinase B) (Homo sapiens, UniProt P14780); experiment: Inhibition activity against human MMP-9 (gelatinase B), fluorescent peptide substrate; type: biochemical; settings: compounds of the formula (I)
T1 construct: endogenous in cells; host or cells: HT1080 human fibrosarcoma cells (ATCC CCL-121), PMA-stimulated; enzyme purified from the culture supernatant
In short: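 MMP-9 purified from PMA-stimulated (10 ng/ml) HT1080 supernatant, or commercial enzyme (0.0125-0.025 unit/ml or 0.2 μg/ml final), incubated with compound and 10 μM final Mca-Pro-Leu-Gly-Leu-Dpa-Ala-Arg-NH2 fluorescent substrate at 37 °C for 3 h in the dark. Precursor enzyme activated with APMA.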

[2] = 1st measurement, read-out: MMP-9 inhibition activities IC50, 1st
[3] = 2nd measurement, read-out: MMP-9 inhibition activities IC50, 2nd
[4] = average of 1st and 2nd (or single measurement), read-out: MMP-9 inhibition activities IC50, Average

T1 sequence (P14780 107-707 limits assumed): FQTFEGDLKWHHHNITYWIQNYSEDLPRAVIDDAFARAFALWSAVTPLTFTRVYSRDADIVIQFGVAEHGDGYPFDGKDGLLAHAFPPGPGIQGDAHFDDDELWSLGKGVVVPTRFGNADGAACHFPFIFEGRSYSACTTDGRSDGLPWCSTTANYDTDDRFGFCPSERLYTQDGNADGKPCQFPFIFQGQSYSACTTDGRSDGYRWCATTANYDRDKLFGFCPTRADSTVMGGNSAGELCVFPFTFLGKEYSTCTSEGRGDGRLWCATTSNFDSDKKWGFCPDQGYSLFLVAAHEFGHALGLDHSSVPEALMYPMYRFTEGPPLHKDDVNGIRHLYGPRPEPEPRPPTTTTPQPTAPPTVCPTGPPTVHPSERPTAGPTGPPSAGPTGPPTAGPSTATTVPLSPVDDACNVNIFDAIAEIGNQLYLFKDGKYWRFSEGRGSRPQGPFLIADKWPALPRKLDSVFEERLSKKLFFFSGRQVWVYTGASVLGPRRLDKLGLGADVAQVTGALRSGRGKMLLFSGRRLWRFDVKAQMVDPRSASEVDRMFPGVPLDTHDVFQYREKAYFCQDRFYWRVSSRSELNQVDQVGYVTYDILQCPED

Compound | IC50 [1, 2] | IC50 [1, 3] | IC50 [1, 4] | melting point
CNC(=C[N+](=O)[O-])NNc1ccccc1[N+](=O)[O-] [compound 11] | 31.9 µM | 33.7 µM | 32.8 µM | 194 °C (dec.)
COc1ccc(NC(=C[N+](=O)[O-])NN)cn1 [compound 115] | 31.8 µM | 26.5 µM | 29.2 µM | 162 to 165 °C
CCS(=O)(=O)NC(=C[N+](=O)[O-])NNc1cc(C(F)(F)F)cc(Cl)n1 [compound 161] | 6 µM | – | 6 µM | 114 to 119 °C (dec.)
CNC(=C[N+](=O)[O-])NNc1cccc(C(=O)O)c1 [compound 42] | 41.4 µM | 40.7 µM | 41.4 µM | 250 °C
COc1ccc(NC(=C[N+](=O)[O-])NNc2ccc(C(F)(F)F)cn2)cc1 [compound 41] | 15.1 µM | 13.7 µM | 14.4 µM | 155 to 157 °C
CNC(=C[N+](=O)[O-])NNc1cc(C(F)(F)F)cc(OCc2ccccc2Cl)n1 [compound 174] | 9 µM | – | 9 µM | 162 °C (dec.)
CNC(=C[N+](=O)[O-])NNc1ccccc1C [compound 14] | 47.4 µM | 42.2 µM | 44.8 µM | 171 °C (dec.)
NNC(=C[N+](=O)[O-])NC1CCCC1 [compound 91] | 20 µM | 35.7 µM | 27.9 µM | 192 °C (dec.)
NNC(=C[N+](=O)[O-])NCc1ccccn1 [compound 79] | 39 µM | 36.6 µM | 37.8 µM | 190 °C (dec.)
NNC(=C[N+](=O)[O-])Nc1cccnc1 [compound 50] | 25.7 µM | 23 µM | 24.3 µM | 175 °C (dec.)
CNC(=C[N+](=O)[O-])NN=Cc1ccc(Cl)cc1 [compound 136] | 21.3 µM | 29.2 µM | 25.3 µM | 186 °C (dec.)
CNC(=C[N+](=O)[O-])NNc1ccc(C)cc1 [Compound No. 16] | 49.8 µM | 43.9 µM | 46.8 µM | 186 °C (dec.)
CCCCOCCOc1cc(C(F)(F)F)cc(NNC(=C[N+](=O)[O-])NC)n1 [compound 192] | 8.1 µM | 13.6 µM | 10.9 µM | 128 °C
CNC(=C[N+](=O)[O-])NN=Cc1ncc(C(F)(F)F)cc1Cl [compound 179] | 8.3 µM | – | 8.3 µM | 171 °C (dec.)
CNC(=C[N+](=O)[O-])NN(C)c1ccc(C(F)(F)F)cn1 [compound 36] | 19.7 µM | 24.3 µM | 22 µM | 153 to 154 °C
NNC(=C[N+](=O)[O-])NCc1ccncc1 [compound 55] | 25.3 µM | 30 µM | 27.7 µM | 176 °C (dec.)
CCCOc1ccc(NC(=C[N+](=O)[O-])NN)cc1 [compound 71] | 42.9 µM | 37.4 µM | 40.2 µM | 179 °C (dec.)
CNC(=C[N+](=O)[O-])NNC(O)C(F)(F)F (stereo not drawn) [compound 23] | 42.5 µM | 54.8 µM | 48.7 µM | 144 to 145 °C
CNC(=C[N+](=O)[O-])NNc1cc(C(F)(F)F)cc(SC)n1 [compound 125] | 10.1 µM | 15.8 µM | 13 µM | 192 °C (dec.)
CNC(=C[N+](=O)[O-])NNc1ccnc2cc(Cl)ccc12 [compound 146] | 18.4 µM | 29.4 µM | 23.9 µM | 210 °C (dec.)
CNC(=C[N+](=O)[O-])NNc1cc(C(F)(F)F)cc(OCC2CCCCO2)n1 (stereo not drawn) [compound 128] | 19.2 µM | 10.3 µM | 13 µM | 93 to 95 °C
NNC(=C[N+](=O)[O-])Nc1ccc(OC(F)(F)F)cc1 [Compound No. 61, N-(1-hydrazino-2-nitroethenyl)-4-trifluoromethoxyaniline] | 39.7 µM | 42.2 µM | 40.9 µM | 161 °C (dec.)
COc1ccc(NC(=C[N+](=O)[O-])NN)cc1OC [compound 56] | 39.9 µM | 33.5 µM | 36.7 µM | 148 °C
CNC(=C[N+](=O)[O-])NNc1cc(C(F)(F)F)cc(OCCCc2ccccn2)n1 [compound 118] | 32.3 µM | 35.1 µM | 33.7 µM | 169 °C (dec.)
